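A five-concentration, 48-hour dose response in 96-well plates underlies each endpoint, interpolated linearly between surrounding concentrations. GI50 is the concentration that inhibits growth by half.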 Active and inactive are the calls of the source. Cut-off read from the data, not from the text of the source: active = GI50 up to about 1.1 µM and inactive = higher.
Assays:
Test in all cases: NCI anticancer screen, dose series, 48 h
MDA-N = system: MDA-N
T47D = system: T47D
IGROV-1 = system: IGROV-1
SK-MEL-5 = system: SK-MEL-5
OVCAR-4 = system: OVCAR-4
M14 = system: M14
UACC-257 = system: UACC-257
KM12 = system: KM12
SK-OV-3 = system: SK-OV-3
SF-539 = system: SF-539
DMS-273 = system: DMS-273
SNB-19 = system: SNB-19
Malme-3M = system: Malme-3M
HOP-62 = system: HOP-62
NCI-H522 = system: NCI-H522
ACHN = system: ACHN
U-251 = system: U-251
SF-268 = system: SF-268
HCT-116 = system: HCT-116
CAKI-1 = system: CAKI-1

| Compound | GI50 (MDA-N) | GI50 (T47D) | GI50 (IGROV-1) | GI50 (SK-MEL-5) | GI50 (OVCAR-4) | GI50 (M14) | GI50 (UACC-257) | GI50 (KM12) | GI50 (SK-OV-3) | GI50 (SF-539) | GI50 (DMS-273) | GI50 (SNB-19) | GI50 (Malme-3M) | GI50 (HOP-62) | GI50 (NCI-H522) | GI50 (ACHN) | GI50 (U-251) | GI50 (SF-268) | GI50 (HCT-116) | GI50 (CAKI-1) |
| --- | --- | --- | --- | --- | --- | --- | --- | --- | --- | --- | --- | --- | --- | --- | --- | --- | --- | --- | --- | --- |
| Oc1cc(-c2cccc(Cl)c2)nc2cc3c(cc12)OCO3 | 25.5 nM (active) | 10.6 µM (inactive) | 0.151 µM (active) | 130 nM (active) | > 75 µM (inactive) | 0.179 µM (active) | 366 nM (active) | 0.24 µM (active) | 0.326 µM (active) | 0.257 µM (active) | 0.327 µM (active) | 0.726 µM (active) | 0.138 µM (active) | 0.379 µM (active) | 0.334 µM (active) | 402 nM (active) | – | – | – | – |
| COc1ccc(/C=C\c2cc(OC)c(OC)c(OC)c2)cc1OC | 16.5 nM (active) | 22.2 µM (inactive) | 0.278 µM (active) | 207 nM (active) | 15.8 µM (inactive) | 0.139 µM (active) | 136 nM (active) | 0.0957 µM (active) | 0.114 µM (active) | 0.113 µM (active) | 0.0207 µM (active) | 0.153 µM (active) | 0.0746 µM (active) | 0.128 µM (active) | 0.0349 µM (active) | 348 nM (active) | 0.117 µM (active) | 0.298 µM (active) | 0.135 µM (active) | 0.156 µM (active) |
| c1ccc(CN2CCc3[nH]c4ccccc4c3C2)cc1 | 22100 nM (inactive) | 14.9 µM (inactive) | 38.7 µM (inactive) | 16900 nM (inactive) | 34.8 µM (inactive) | 17.3 µM (inactive) | 16000 nM (inactive) | 22.5 µM (inactive) | 58.3 µM (inactive) | 25 µM (inactive) | 56.2 µM (inactive) | 69.8 µM (inactive) | 17.8 µM (inactive) | 41 µM (inactive) | 18.1 µM (inactive) | 33900 nM (inactive) | 21.4 µM (inactive) | 43.8 µM (inactive) | 19.9 µM (inactive) | 36.5 µM (inactive) |
| CCCCCCCCCC[C@@H](O)[C@@H]1CC[C@@H]([C@@H]2CC[C@@H]([C@@H](O)CCCCCCCCCC[C@H](O)CC3=CC(C)OC3=O)O2)O1 (some centres undefined) | – | 2.63 µM (inactive) | 3.48 µM (inactive) | 38.5 nM (active) | 6.28 µM (inactive) | 3.71 µM (inactive) | 356 nM (active) | 2.16 µM (inactive) | 3.92 µM (inactive) | 4.5 µM (inactive) | 2.36 µM (inactive) | 4.6 µM (inactive) | 1.79 µM (inactive) | 2.99 µM (inactive) | 1.72 µM (inactive) | 35.5 nM (active) | 6.03 µM (inactive) | 3.87 µM (inactive) | 1.91 µM (inactive) | 12.1 µM (inactive) |
| CCOc1ccccc1Nc1nc(C)c(C(=O)CC(=O)C(=O)Nc2ccccc2)s1 | – | – | > 100 µM (inactive) | 49200 nM (inactive) | 11 µM (inactive) | > 100 µM (inactive) | 50900 nM (inactive) | 45.6 µM (inactive) | > 100 µM (inactive) | > 100 µM (inactive) | 54.2 µM (inactive) | 91.8 µM (inactive) | > 100 µM (inactive) | > 100 µM (inactive) | 30.9 µM (inactive) | 37800 nM (inactive) | 36.6 µM (inactive) | > 100 µM (inactive) | 51.8 µM (inactive) | 47.8 µM (inactive) |
| COc1ccc(-c2oc(/C=N/c3ccccc3)c([N+](=O)[O-])c2-c2ccc(OC)c(OC)c2)cc1OC | – | – | > 100 µM (inactive) | > 100000 nM (inactive) | > 100 µM (inactive) | > 100 µM (inactive) | > 100000 nM (inactive) | > 100 µM (inactive) | > 100 µM (inactive) | > 100 µM (inactive) | > 100 µM (inactive) | > 100 µM (inactive) | > 100 µM (inactive) | > 100 µM (inactive) | > 100 µM (inactive) | > 100000 nM (inactive) | > 100 µM (inactive) | > 100 µM (inactive) | > 100 µM (inactive) | > 100 µM (inactive) |
| CC(=O)O[C@@]12CO[C@@H]1C[C@H](O)[C@@]1(C)C(=O)[C@H](O)C3=C(C)[C@@H](OC(=O)[C@H](O)[C@@H](NC(=O)OC(C)(C)C)c4ccccc4)C[C@@](O)([C@@H](OC(=O)c4ccccc4)[C@H]21)C3(C)C [DOCETAXEL] | 0.1 nM (active) | – | < 0.01 µM (active) | < 10 nM (active) | 21.8 µM (inactive) | – | 455 nM (active) | < 0.01 µM (active) | 0.0132 µM (active) | < 0.01 µM (active) | < 0.01 µM (active) | 43.2 µM (inactive) | > 10 µM (inactive) | < 0.01 µM (active) | < 0.01 µM (active) | 590 nM (active) | < 0.01 µM (active) | < 0.01 µM (active) | < 0.01 µM (active) | 0.0417 µM (active) |
